Measured values reported in patent US12233072B2, “Compositions comprising bisfluoroalkyl-1,4-benzodiazepinone compounds for treating Adenoid Cystic Carcinoma” (Immunome, Inc., priority 2018, dated 2025).

Experiment: Phase 2 study, safety and tolerability (adverse events)
Format: in vivo, human
Procedure: Safety analysis set consisted of all enrolled patients who received at least one dose of study drug (even a partial dose).
Safety was assessed on the basis of AEs, clinically significant laboratory abnormalities, concomitant medication use, vital signs, pain assessments, and physical examination data for patients in the safety analysis set. Hematology and clinical chemistry data were summarized by change from baseline and worst-case toxicity grade shift relative to baseline. Deaths were listed by primary cause and date relative to last dose of study drug.

Compound: CN1C(=O)[C@@H](NC(=O)[C@H](CCC(F)(F)F)[C@H](CCC(F)(F)F)C(N)=O)N=C(c2ccccc2)c2ccccc21 [Compound (1), (2R,3S)—N-((3S)-1-methyl-2-oxo-5-phenyl-2,3-dihydro-1H-1,4-benzodiazepin-3-yl)-2,3-bis(3,3,3-trifluoropropyl)succinamide]
- dose-reductions, delays, or interruptions (4 mg IV qwk): 5 n
- tolerability (ACC patients, 4 mg IV qwk): generally well tolerated
- Any deaths, Treatment-Related (Safety Population (N = 27)): 0 n
- Treatment-related Cough, Grade 3/4 (Safety Population (N = 27)): 0 n
- Treatment-related Dry skin, Grade 3/4 (Safety Population (N = 27)): 0 n
- Treatment-related Epistaxis, Grade 3/4 (Safety Population (N = 27)): 0 n
- Treatment-related Fatigue, Grade 3/4 (Safety Population (N = 27)): 0 n
- Treatment-related Insomnia, Grade 3/4 (Safety Population (N = 27)): 0 n
- Treatment-related Productive cough, Grade 3/4 (Safety Population (N = 27)): 0 n
- Treatment-related Vomiting, Grade 3/4 (Safety Population (N = 27)): 0 n
- total Serious Adverse Events (SAEs) (among 15 patients): 26 events
- SAEs considered treatment-related (by the investigator): three
